One test deals with E. coli strain K12. Description: Antibacterial assay, growth of E. coli (OD 600 nm). The test is classed as cell-based. The settings on record: at the concentrations used for the inhibition of P. gingivalis growth. Here is the method: (§1) The inhibitory effects of SH-5 and the lipophilic analog NPPB against growth of P. gingivalis strain W83 were evaluated by monitoring optical density at 600 nm (Fig. 6, closed squares). […] The maximal percent inhibition values for SH-5 and NPPB were 68% at 1 mM and 99% at 100 μM, respectively.
(§2) Antibacterial assays against P. gingivalis strain W83 and E. coli strain K12 were performed as previously described[62],[63]. P. gingivalis cells were cultured in anaerobic bacterium culture medium (ABCM, Eiken Chemical, Tokyo, Japan) containing 0.001% menadione under anaerobic conditions at 37 °C for 48 h. E. coli cells were grown in M9 medium with 1% glucose with shaking at 37 °C for 24 h. All compounds were dissolved in DMSO at stock concentrations of 100 mM. […] Growth of P. gingivalis and E. coli with compounds was determined as the optical density at 600 nm after incubation.

The target of a further test is SmDPP11 (Stenotrophomonas maltophilia, UniProt B4SNQ8). Briefly: Inhibition of SmDPP11 enzymatic activity on Leu-Asp-MCA. The settings on record: for Ki / remaining activity at 100 µM: SmDPP11; for Ki: Cheng-Prusoff equation, 100 µM Leu-Asp-MCA; for remaining activity at 100 µM: inhibitor and synthetic substrate (Leu-Asp-MCA) 100 µM, 100% = activity without inhibitor, read-out: Residual activity (%). In kind it is biochemical. The source says:
(§3) To examine whether SH-5 is a universal inhibitor of S46 peptidases or is specific for PgDPP11, we evaluated the inhibitory effects of SH-5 against PgDPP7. In addition, the inhibitory effects of SH-5 against DPP7 and DPP11 from Stenotrophomonas maltophilia (SmDPP7 and SmDPP11, respectively) were also examined as another reference set of S46 peptidases in the same organism.
(§4) Thirteen of fifteen final candidate compounds from the in silico screening described above were purchased from Namiki Shoji Co., Ltd. (Tokyo, Japan). Half-maximal inhibitory concentration (IC50) values were determined by fitting to a sigmoidal curve (4-parameter logistic curve) using ImageJ[60] Competitive inhibition rates were measured using different concentrations of each inhibitor in a reaction buffer containing 50 mM sodium phosphate buffer (pH 8.0), 5 mM EDTA and 0.005% Tween 20 at 298 K for 20 min and using 100 µM Leu-Asp-MCA (4-methylcoumaryl-7-amide) as the substrate for DPP11s. For DPP7s, 100 µM Met-Leu-MCA was used as the substrate. The concentrations of PgDPP11, PgDPP7, SmDPP11 and SmDPP7 were 1, 10, 0.5 and 5 nM, respectively. The inhibitor concentrations were 1000, 500, 250, 125, 62.5, 31.3 and 15.6 µM. Standard deviations were calculated from three independent experiments. Fluorescence intensity was measured with excitation at 355 nm and emission at 460 nm using an Infinite 200 PRO microplate reader. Inhibition constants (Ki) were calculated using the Cheng-Prusoff equation[61].

The next test has as its target T1, PgDPP11 (Porphyromonas gingivalis, UniProt B2RID1).
T1 construct: signal peptide of DAP BIII (Pseudoxanthomonas mexicana WO24) (N, cleaved yes); made in house; host or cells: E. coli BL21 Gold(DE3), pET22b
Briefly: Inhibition of PgDPP11 enzymatic activity on Leu-Asp-MCA. In kind it is biochemical. Particulars: for Ki: Cheng-Prusoff equation; for remaining activity at 100 µM: inhibitor and synthetic substrate (Leu-Asp-MCA) 100 µM, 100% = activity without inhibitor, read-out: Residual activity (%). How it is done:
We evaluated the inhibitory effects of the 13 commercially available candidate compounds obtained by the in silico screening described above against the enzymatic activity of PgDPP11 on the synthetic substrate Leu-Asp-MCA (4-methylcoumaryl-7-amide) (Fig. 5). Each compound was first tested at a concentration of 100 μM.
Figure 5 Inhibitory effects of 13 candidate compounds obtained by multifilter in silico screening. […] Standard deviations were obtained from three independent experiments.
as §4

The next test has as its system P. gingivalis strain W83. Description: Antibacterial assay, growth of P. gingivalis (OD 600 nm). In kind it is cell-based. The settings on record: Porphyromonas gingivalis; for IC50: strain W83, optical density at 600 nm, 48 h anaerobic, read-out: IC50, inhibition of growth of P. gingivalis. How it is done:
as §1, §2

In another test the target is SmDPP7 (Stenotrophomonas maltophilia, UniProt B4SLK2). Briefly: Inhibition of SmDPP7 enzymatic activity on Met-Leu-MCA. The settings on record: for remaining activity at 100 µM: read-out: Residual activity (%). In kind it is biochemical.
SmDPP7, sequence (B4SLK2 entry or part of it): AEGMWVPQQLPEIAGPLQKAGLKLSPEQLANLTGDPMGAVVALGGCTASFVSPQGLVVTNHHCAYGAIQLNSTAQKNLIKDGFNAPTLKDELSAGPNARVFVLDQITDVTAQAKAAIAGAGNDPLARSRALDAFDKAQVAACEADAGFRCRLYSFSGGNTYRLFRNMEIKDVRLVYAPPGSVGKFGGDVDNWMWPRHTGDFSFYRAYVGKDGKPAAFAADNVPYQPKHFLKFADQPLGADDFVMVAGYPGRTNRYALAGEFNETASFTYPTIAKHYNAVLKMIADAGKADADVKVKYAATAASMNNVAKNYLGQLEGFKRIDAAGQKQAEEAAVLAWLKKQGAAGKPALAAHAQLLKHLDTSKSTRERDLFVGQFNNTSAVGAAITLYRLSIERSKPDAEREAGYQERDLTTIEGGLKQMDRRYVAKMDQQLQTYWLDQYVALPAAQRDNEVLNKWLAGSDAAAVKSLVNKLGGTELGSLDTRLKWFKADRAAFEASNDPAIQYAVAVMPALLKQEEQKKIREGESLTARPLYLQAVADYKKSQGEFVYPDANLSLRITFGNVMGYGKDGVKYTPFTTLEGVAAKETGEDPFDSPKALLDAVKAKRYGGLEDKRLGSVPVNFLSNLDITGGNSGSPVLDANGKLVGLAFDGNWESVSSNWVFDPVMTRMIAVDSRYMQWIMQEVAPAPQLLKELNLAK
Source text: as §3, §4

Another test concerns the target PgDPP7 (Porphyromonas gingivalis, UniProt Q7MWU6). Briefly: Inhibition of PgDPP7 enzymatic activity on Met-Leu-MCA. In kind it is biochemical. Particulars: for remaining activity at 100 µM: read-out: Residual activity (%).
Source text: as §3, §4

The subject of the next test is ClC-5. More on the design: method as in ref [2] of Table S1. Particulars: Mouse, UniProt Q9WVD4; ref [2] of Table S1; cited from earlier work.
A further test relates to BEST-1. More on the design: method as in ref [7] of Table S1. The settings on record: Mouse, UniProt O88870; ref [7] of Table S1; cited from earlier work.
The test system of the next test is ANO-1. More on the design: method as in ref [5] of Table S1. Particulars: Mouse, UniProt Q8BHY3; ref [5] of Table S1; cited from earlier work.
The next test deals with ClC-7. Set-up: method as in ref [4] of Table S1. The settings on record: Human, UniProt P51798; ref [4] of Table S1; cited from earlier work.
Another test relates to ClC-2. More on the design: method as in ref [1] of Table S1. The settings on record: Rat, UniProt P35525; ref [1] of Table S1; cited from earlier work.
In another test the test system is ANO-2. Set-up: method as in ref [6] of Table S1. Particulars: Mouse, UniProt Q8CFW1; ref [6] of Table S1; cited from earlier work.
The subject of a further test is ClC-ec1. Set-up: method as in PMID 23177200. Particulars: cited from earlier work.
For the next test, the system named is CFTR. Set-up: method as in ref [8] of Table S1. The settings on record: Xenopus, UniProt P26363; ref [8] of Table S1; cited from earlier work.
A further test concerns ClC-6. More on the design: method as in ref [3] of Table S1. The settings on record: Human, UniProt P51797; ref [3] of Table S1; cited from earlier work.

Values joined by “and” are separate entries in the source; they are usually repeats but may differ in a detail not shown here. Equal entries are not always repeated. Where two headings read alike, the source gives them in different places. Some results are limits rather than exact numbers.

In general, Ki refers to the dissociation constant of the complex between target and ligand, obtained from inhibition or displacement. A low value points to a stronger hold on the target. Broadly, the IC50 is the midpoint of a concentration-inhibition curve.

SmDPP11, sequence (B4SNQ8 24-715 limits assumed): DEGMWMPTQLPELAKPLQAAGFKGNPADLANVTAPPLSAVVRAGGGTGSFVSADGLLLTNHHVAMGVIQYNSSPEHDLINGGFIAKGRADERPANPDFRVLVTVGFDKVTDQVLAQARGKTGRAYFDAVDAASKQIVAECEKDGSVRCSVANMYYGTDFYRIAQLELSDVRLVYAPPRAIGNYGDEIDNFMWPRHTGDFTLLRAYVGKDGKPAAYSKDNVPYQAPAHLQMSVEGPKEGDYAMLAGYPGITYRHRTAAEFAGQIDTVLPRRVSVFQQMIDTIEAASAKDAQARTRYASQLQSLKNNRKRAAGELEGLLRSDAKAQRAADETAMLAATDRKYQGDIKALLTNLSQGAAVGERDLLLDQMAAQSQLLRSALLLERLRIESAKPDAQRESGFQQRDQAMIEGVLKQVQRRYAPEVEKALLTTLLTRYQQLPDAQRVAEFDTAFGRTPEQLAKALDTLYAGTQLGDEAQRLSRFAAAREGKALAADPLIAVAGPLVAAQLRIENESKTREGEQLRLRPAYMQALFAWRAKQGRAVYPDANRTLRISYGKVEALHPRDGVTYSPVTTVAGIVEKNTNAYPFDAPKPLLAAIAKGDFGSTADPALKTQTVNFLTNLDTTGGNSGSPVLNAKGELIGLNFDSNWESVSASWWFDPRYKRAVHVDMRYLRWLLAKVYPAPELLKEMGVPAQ
PgDPP7, sequence (Q7MWU6 entry or part of it): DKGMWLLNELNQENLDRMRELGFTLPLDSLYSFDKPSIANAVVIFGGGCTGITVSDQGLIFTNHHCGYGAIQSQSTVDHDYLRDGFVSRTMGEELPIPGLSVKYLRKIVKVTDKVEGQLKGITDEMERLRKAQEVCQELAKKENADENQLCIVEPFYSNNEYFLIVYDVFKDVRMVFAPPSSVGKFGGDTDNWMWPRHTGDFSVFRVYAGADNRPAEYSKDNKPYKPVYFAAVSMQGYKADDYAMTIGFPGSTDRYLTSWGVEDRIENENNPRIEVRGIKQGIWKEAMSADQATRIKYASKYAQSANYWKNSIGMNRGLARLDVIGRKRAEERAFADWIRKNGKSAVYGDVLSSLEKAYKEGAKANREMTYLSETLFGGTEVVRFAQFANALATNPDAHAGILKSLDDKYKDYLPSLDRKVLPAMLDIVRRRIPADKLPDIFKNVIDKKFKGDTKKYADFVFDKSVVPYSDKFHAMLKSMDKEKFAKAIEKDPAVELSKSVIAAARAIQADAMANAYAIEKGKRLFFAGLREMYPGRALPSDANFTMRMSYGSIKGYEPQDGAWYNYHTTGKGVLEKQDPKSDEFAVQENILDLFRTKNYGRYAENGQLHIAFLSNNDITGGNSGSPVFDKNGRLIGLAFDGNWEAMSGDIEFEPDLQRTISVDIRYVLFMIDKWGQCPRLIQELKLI
T1 sequence (B2RID1 22-720): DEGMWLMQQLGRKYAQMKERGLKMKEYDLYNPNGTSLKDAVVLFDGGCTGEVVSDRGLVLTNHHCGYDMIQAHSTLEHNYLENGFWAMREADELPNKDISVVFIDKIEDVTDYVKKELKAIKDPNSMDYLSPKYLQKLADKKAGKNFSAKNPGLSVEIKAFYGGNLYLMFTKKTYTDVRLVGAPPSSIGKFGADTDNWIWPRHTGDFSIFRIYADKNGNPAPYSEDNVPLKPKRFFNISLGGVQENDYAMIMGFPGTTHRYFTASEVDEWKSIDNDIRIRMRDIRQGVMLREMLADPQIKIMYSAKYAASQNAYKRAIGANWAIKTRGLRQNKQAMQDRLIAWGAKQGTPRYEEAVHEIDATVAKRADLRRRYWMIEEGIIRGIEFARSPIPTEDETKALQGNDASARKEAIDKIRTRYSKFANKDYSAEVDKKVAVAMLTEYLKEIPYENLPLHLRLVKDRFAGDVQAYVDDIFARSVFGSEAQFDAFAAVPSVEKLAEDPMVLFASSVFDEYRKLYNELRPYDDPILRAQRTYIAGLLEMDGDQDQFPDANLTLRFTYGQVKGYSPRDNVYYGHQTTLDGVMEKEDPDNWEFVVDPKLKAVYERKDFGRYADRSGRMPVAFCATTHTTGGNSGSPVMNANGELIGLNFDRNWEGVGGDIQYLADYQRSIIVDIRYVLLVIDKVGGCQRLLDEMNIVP

As for `NCCNc1ccc([N+](=O)[O-])cc1C(=O)O` [SH-5, 2-[(2-aminoethyl)amino]-5-nitrobenzoic acid], the “toxicity toward E. coli (growth)” value in the test with E. coli strain K12 is on record as “not toxic”. The “inhibitory effect against SmDPP11 (in words)” value against SmDPP11 is “significant inhibitory effects”. The Ki at SmDPP11 is 24.9 ± 0.5 µM; on PgDPP11 (PgDPP11, 100 µM Leu-Asp-MCA) it was ~8.45 µM and 8.45 µM; at SmDPP7 (SmDPP7, Cheng-Prusoff equation, 100 µM Met-Leu-MCA) it was 36.6 ± 1.3 µM; on PgDPP7 (PgDPP7, Cheng-Prusoff equation, 100 µM Met-Leu-MCA) it was 52.2 ± 3.3 µM. For the same molecule, the remaining activity at 100 µM on SmDPP11 is 48 ± 1.1%; at PgDPP11 (PgDPP11), 62.9 ± 0.1%; at SmDPP7 (SmDPP7, inhibitor and synthetic substrate (Met-Leu-MCA) 100 µM, 100% = activity without inhibitor) it was 72.8 ± 0.7%; on PgDPP7 (PgDPP7, inhibitor and synthetic substrate (Met-Leu-MCA) 100 µM, 100% = activity without inhibitor) it was 54.4 ± 0.7%. For the same molecule, on PgDPP11, the “inhibitory effect against PgDPP11 (in words)” value was “significant inhibitory effects”. The inhibition at 100 µM at PgDPP11 (compound tested at 100 μM, substrate Leu-Asp-MCA, read-out: inhibitory effect against PgDPP11) was > 30%. The “ligand efficiency (LE)” value on PgDPP11 (roughly calculated as LE = 1.37pIC50/HA) is reported as 0.346. The inhibition at 1000 µM in the test on P. gingivalis strain W83 (P. gingivalis W83, at 1 mM, read-out: maximal percent inhibition of growth) stood at 68%. In addition, the IC50 in the test on P. gingivalis strain W83 came to 687 µM. The “inhibitory effect against SmDPP7 (in words)” value at SmDPP7 is recorded as “significant inhibitory effects”. For the same molecule, the “inhibitory effect against PgDPP7 (in words)” value against PgDPP7 is recorded as “significant inhibitory effects”.

`O=C(O)c1cc([N+](=O)[O-])ccc1NCCCc1ccccc1` [NPPB, 5-nitro-2-(3-phenylpropylamino)benzoic acid]: in the test with ClC-5, the “inhibition of ClC-5” value is listed as “inhibited”. Further, in the test on BEST-1, the “inhibition of BEST-1” value is recorded as “inhibited”. Further, the “inhibition of ANO-1” value in the test with ANO-1 is on record as “inhibited”. Further, the “toxicity toward E. coli (growth)” value with E. coli strain K12 was “not toxic”. Further, the “inhibition of ClC-7” value with ClC-7 is “inhibited”. In addition, on SmDPP11, the “inhibitory effect against SmDPP11 (in words)” value was “significant inhibitory effects”, the Ki was found to be 84.8 ± 3.1 µM and the remaining activity at 100 µM turned out to be 67.7 ± 0.6%. In addition, in the test on ClC-2, the “inhibition of ClC-2” value is given as “inhibited”. Besides, the “inhibitory effect against PgDPP11 (in words)” value on PgDPP11 is “significant inhibitory effects”. Moreover, the inhibition constant (Ki) at PgDPP11 (PgDPP11, 100 µM Leu-Asp-MCA) is ~15 µM and 15 µM. For the same molecule, the remaining activity at 100 µM on PgDPP11 (PgDPP11) was 70.3 ± 0.7%. Also, in the test on ANO-2, the “inhibition of ANO-2” value is recorded as “inhibited”. For the same molecule, the “inhibition of ClC-ec1 protein” value in the test with ClC-ec1 is listed as “not be inhibited”. Besides, the inhibition at 100 µM in the test with P. gingivalis strain W83 (P. gingivalis W83, at 100 μM, read-out: maximal percent inhibition of growth) turned out to be 99%. Also, the IC50 in the test on P. gingivalis strain W83 came out at 6 µM. Further, at SmDPP7, the “inhibitory effect against SmDPP7 (in words)” value is “inactive” and the remaining activity at 100 µM was determined as 119 ± 0.3%. The “inhibition of CFTR” value in the test on CFTR is reported as “inhibited”. Moreover, the “inhibition of ClC-6” value in the test on ClC-6 is reported as “inhibited”. On PgDPP7, the “inhibitory effect against PgDPP7 (in words)” value is “inactive” and the remaining activity at 100 µM stood at 159 ± 5%.

For `NC(=O)c1ccc(SCC(=O)O)c([N+](=O)[O-])c1` [SH-5_3, 2-(4-carbamoyl-2-nitrophenyl)sulfanylacetic acid], at PgDPP11, the “inhibitory effect against PgDPP11 (in words)” value is on record as “significant but relatively weak inhibitory effect”. On PgDPP11 (PgDPP11, dose-response 15.6-1000 μM, 100 µM Leu-Asp-MCA), the 50% inhibitory concentration (IC50) is ~1070 µM.

The values above are taken from PMC6753110, “Fragment-based discovery of the first nonpeptidyl inhibitor of an S46 family peptidase” (Scientific Reports, 2019).
